Measured values: ChEMBL document CHEMBL1129291, “Tyrosine kinase inhibitors. 8. An unusually steep structure-activity relationship for analogues of 4-(3-bromoanilino)-6,7-dimethoxyquinazoline (PD 153035), a potent inhibitor of the epidermal growth factor receptor” (J Med Chem, 1996)
pIC50: −log10 of the molar value.

Each compound was assayed against Epidermal growth factor receptor (Homo sapiens, UniProt P00533) (assay: Concentration required to inhibit the phosphorylation of a 14-residue fragment of phospholipase C gamma 1 by Epidermal growth factor receptor from A431 cell vesicles).
Epidermal growth factor receptor, sequence (P00533 whole entry, the tested form may be a part): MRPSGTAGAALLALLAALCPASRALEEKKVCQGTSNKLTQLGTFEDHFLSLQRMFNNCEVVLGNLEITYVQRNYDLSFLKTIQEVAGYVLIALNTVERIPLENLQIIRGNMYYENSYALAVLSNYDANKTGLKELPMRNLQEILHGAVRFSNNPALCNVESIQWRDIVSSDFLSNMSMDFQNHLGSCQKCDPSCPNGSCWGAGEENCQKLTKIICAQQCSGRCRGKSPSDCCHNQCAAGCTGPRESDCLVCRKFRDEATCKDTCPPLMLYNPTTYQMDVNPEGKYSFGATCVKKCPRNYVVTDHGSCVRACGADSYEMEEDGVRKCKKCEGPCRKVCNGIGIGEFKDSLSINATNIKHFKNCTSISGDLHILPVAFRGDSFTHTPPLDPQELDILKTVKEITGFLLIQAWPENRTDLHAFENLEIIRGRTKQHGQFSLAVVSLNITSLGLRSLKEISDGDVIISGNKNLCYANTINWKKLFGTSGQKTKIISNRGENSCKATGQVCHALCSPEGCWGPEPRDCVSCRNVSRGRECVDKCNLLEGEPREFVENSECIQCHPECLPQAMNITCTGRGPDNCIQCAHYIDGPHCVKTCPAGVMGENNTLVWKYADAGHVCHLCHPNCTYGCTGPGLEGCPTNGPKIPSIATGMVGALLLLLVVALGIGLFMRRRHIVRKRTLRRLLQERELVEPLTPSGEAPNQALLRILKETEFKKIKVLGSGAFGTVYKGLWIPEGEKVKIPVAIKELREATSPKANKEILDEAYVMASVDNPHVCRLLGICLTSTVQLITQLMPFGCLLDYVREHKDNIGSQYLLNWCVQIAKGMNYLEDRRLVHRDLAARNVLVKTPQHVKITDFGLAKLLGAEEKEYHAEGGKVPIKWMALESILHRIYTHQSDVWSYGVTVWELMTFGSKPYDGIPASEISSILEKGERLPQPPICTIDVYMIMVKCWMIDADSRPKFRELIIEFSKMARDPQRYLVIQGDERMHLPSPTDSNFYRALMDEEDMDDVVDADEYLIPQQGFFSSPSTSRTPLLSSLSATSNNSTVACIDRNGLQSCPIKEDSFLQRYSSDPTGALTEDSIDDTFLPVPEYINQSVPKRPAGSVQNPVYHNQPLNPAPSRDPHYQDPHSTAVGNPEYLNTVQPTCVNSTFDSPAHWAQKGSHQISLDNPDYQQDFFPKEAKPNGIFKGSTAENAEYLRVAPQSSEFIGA

| pIC50 | SMILES |
| --- | --- |
| < 5.00 | COc1cc2nc(C)nc(Nc3cccc(Br)c3)c2cc1OC |
| 9.62 | COc1cc2ncnc(Nc3cccc(C(F)(F)F)c3)c2cc1OC |
| 9.17 | COc1cc2ncnc(Nc3cccc(Br)c3)c2c(OC)c1OC |
| 6.98 | CCCCOc1cc2ncnc(Nc3cccc(Br)c3)c2cc1OCCCC |
| < 5.00 | O=[N+]([O-])c1ccc2ncnc(Nc3cccc(C(F)(F)F)c3)c2c1 |
| 10.14 | COc1cc2ncnc(Nc3ccc(Br)c(Br)c3)c2cc1OC |
| 9.02 | COc1cc2ncnc(Nc3ccc(Br)cc3)c2cc1OC |
| 6.24 | Nc1ccc2ncnc(Nc3cccc(C(F)(F)F)c3)c2c1 |
| 5.30 | O=[N+]([O-])c1ccc2ncnc(Nc3ccccc3)c2c1 |
| 7.26 | COc1ccc2ncnc(Nc3ccccc3)c2c1 |
| 9.60 | Nc1ccc2c(Nc3cccc(Cl)c3)ncnc2c1 |
| 11.22 | CCOc1cc2ncnc(Nc3cccc(Br)c3)c2cc1OCC |
| 9.77 | CCCOc1cc2ncnc(Nc3cccc(Br)c3)c2cc1OCCC |
| < 5.00 | COc1cc2c(Nc3cccc(Br)c3)ncnc2c(OC)c1OC |
| 8.40 | CNc1ccc2ncnc(Nc3cccc(Br)c3)c2c1 |
| 7.08 | CN(C)c1ccc2ncnc(Nc3cccc(Br)c3)c2c1 |
| 7.52 | COc1ccc2ncnc(Nc3cccc(Br)c3)c2c1 |
| 8.19 | Nc1cc2c(Nc3cccc(Br)c3)ncnc2cc1Cl |
| 7.82 | COc1cc2ncnc(Nc3cccc(Br)c3)c2cc1[N+](=O)[O-] |
| 7.60 | O=[N+]([O-])c1cc2c(Nc3cccc(Br)c3)ncnc2cc1Cl |
| 6.11 | Nc1ccc2ncnc(Nc3ccccc3)c2c1 |
| 7.96 | CN(C)c1ccc2c(Nc3cccc(Br)c3)ncnc2c1 |
| 4.92 | O=[N+]([O-])c1ccc2c(Nc3ccccc3)ncnc2c1 |
| 9.46 | Nc1ccc2c(Nc3cccc(I)c3)ncnc2c1 |

| pIC50 | SMILES |
| --- | --- |
| 6.89 | COc1cc2ncnc(Nc3ccccc3Br)c2cc1OC |
| 6.92 | COc1ccc2c(Nc3ccccc3)ncnc2c1 |
| 6.95 | COc1cc2ncnc(Nc3cc(Br)cc(Br)c3)c2cc1OC |
| 7.17 | CNc1cc2ncnc(Nc3cccc(Br)c3)c2cc1[N+](=O)[O-] |
| 9.16 | CNc1cc2ncnc(Nc3cccc(Br)c3)c2cc1N |
| 7.25 | Fc1cccc(Nc2ncnc3ccccc23)c1 |
| 7.82 | Brc1cccc(Nc2ncnc3cc4c(cc23)OCO4)c1 |
| 6.27 | O=[N+]([O-])c1ccc2c(Nc3cccc(I)c3)ncnc2c1 |
| 6.33 | COc1cc2nc(N)nc(Nc3cccc(Br)c3)c2cc1OC |
| 8.33 | Oc1ccc2c(Nc3cccc(Br)c3)ncnc2c1 |
| < 5.00 | COc1ccc2c(Nc3cccc(Br)c3)ncnc2c1OC |
| 7.40 | CC(=O)Nc1ccc2c(Nc3cccc(Br)c3)ncnc2c1 |
| 5.70 | CN(C)c1cc2ncnc(Nc3cccc(Br)c3)c2cc1[N+](=O)[O-] |
| 7.28 | Nc1cc2ncnc(Nc3cccc(Br)c3)c2cc1[N+](=O)[O-] |
| 6.09 | O=[N+]([O-])c1ccc2c(Nc3cccc(Cl)c3)ncnc2c1 |
| 7.55 | CC(=O)Nc1cc2ncnc(Nc3cccc(Br)c3)c2cc1[N+](=O)[O-] |
| 8.70 | Nc1ccc2c(Nc3cccc(F)c3)ncnc2c1 |
| 7.54 | COc1cc2ncnc(Nc3ccccc3)c2cc1OC |
| < 5.00 | O=[N+]([O-])c1ccc2c(Nc3cccc(C(F)(F)F)c3)ncnc2c1 |
| 9.05 | COc1cc2ncnc(Nc3cccc(I)c3)c2cc1OC |
| 6.80 | CN(C)c1cc2ncnc(Nc3cccc(Br)c3)c2cc1N |
| 5.86 | COc1ccc2ncnc(Nc3cccc(Br)c3)c2c1OC |
| 8.42 | COc1cc2ncnc(Nc3cccc(Br)c3)c2cc1N |
